Results reported in US6225063A, “RNA channels in biological membranes” (University Technology Corporation, priority 1999, dated 2001).

Test system: 11th -round pool RNA
Test: RNA-liposome binding in the presence of a potential competitor (SEPHACRYL S-1000 gel filtration)
Conditions: 5 mM competitor; 11th-round pool RNA incubated with liposomes

**Q.** For `NCCO` [ethanolamine], which “RNA binding to phosphatidylcholine liposomes in the presence of competitor” value is on record?
**A.** Its value is “did not interfere with binding”.
